The text below walks through data of the OligoGym collection.

The series deals with HSD17B13. Conditions: ASO, HepaRG.

Several values for one entry are separate records, joined by “and”; a condition that tells them apart may be missing. Equal entries are not always repeated. After the bases stand the sugars from the 5' end (letter, count) and the backbone: PS all phosphorothioate, else s phosphorothioate and o phosphodiester by linkage. Methylation of C is not given here. e = 2'-O-(2-methoxyethyl) (MOE); k = constrained ethyl (cEt); d = 2'-deoxy (DNA); m = 2'-O-methyl

AGTTTTGGGACCAATA (sugars k3 d10 k3, PS) came in with a target mRNA inhibition (1 µM) of 31%.

Sequence TCCCACAGAACCAATA (sugars k3 d10 k3, PS) returned a target mRNA inhibition (1 µM) of 24%. Same read-out and setting: the value for CATAAAAATCGCTGCT (sugars k3 d10 k3, PS) was 45%; that for TTAGTTGGTAGCTTGC (sugars k3 d10 k3, PS) was 72%. With CACTTTCACTGGGTGT (sugars k3 d10 k3, PS), the target mRNA inhibition (1 µM) stood at 7%.

With ATAACATGGCTGGCAT (sugars k3 d10 k3, PS), the target mRNA inhibition (1 µM) is 14%. Still for that read-out and setting: for “TATGAAGTTAGTATAG (sugars kkdddddddddkekek, PS)” the value was 47%.

On to CCATCTATCAGACTTC (sugars k3 d10 k3, PS), for which the target mRNA inhibition amounted to 0% (0.02 µM); 0% (0.078 µM); 20% (0.313 µM); 78% (1 µM); 63% (1.25 µM); 78% (5 µM).

Turning to TCCTACAGTGCTTAGT (sugars k3 d10 k3, PS), the target mRNA inhibition (1 µM) came out at 44%. Still for that read-out and setting: for TCATAGTTCAAATTGG (sugars k3 d10 k3, PS) the value was 47%; for “CTGTGGCATGGCTACA (sugars k3 d9 k3 e1, PS)”, 58%. On the same count and under the same terms, for GTTTAACTTTCCTCCG (sugars k3 d10 k3, PS) the value was 30%; for AACCCAGTATTCACAA (sugars k3 d10 k3, PS), 0%; for GATTAGTTAACCTTTT (sugars k3 d10 k3, PS), 58%. On the same count and under the same terms, for TAGAACTCCCAACCCA (sugars k3 d10 k3, PS) the value was 44%; for ATCTACATGGATCCAA (sugars k3 d10 k3, PS), 12%; for TGACAATGGTTGCCAC (sugars k3 d10 k3, PS), 40%. Turning to CTGAGAAGATCGGCTG (sugars k3 d10 k3, PS), where the note is “1 µM”, the target mRNA inhibition is 37%. On the same count and under the same terms, for TCATAAAGGTGGGATA (sugars k3 d10 k3, PS) the value was 40%; for ACCCATTCTAACTTGA (sugars k3 d10 k3, PS), 0%. On the same count and under the same terms, the value for TTTCATGGCCTTACCA (sugars k3 d10 k3, PS) was 52%. GATAAAGCTGCCTGCT (sugars k3 d10 k3, PS) returned a target mRNA inhibition (1 µM) of 42%.

For the sequence TGATAATTTGGTGTCA (sugars k3 d10 k3, PS), the target mRNA inhibition (1 µM) turned out to be 3%.

As for CATCCTTGGTGCTGAG (sugars k3 d10 k3, PS), the target mRNA inhibition (1 µM) came out at 12%.

As for CTCTTAGCTGTGCACT (sugars k3 d10 k3, PS), the target mRNA inhibition (1 µM) came out at 53%.

Take “GCATGGCTACAGATTG (sugars kkdddddddddkekek, PS)”: the target mRNA inhibition (1 µM) amounted to 41%. Regarding ATATACATCCAAGTAA (sugars k3 d10 k3, PS), the target mRNA inhibition (1 µM) is 18%. In turn, TAGTGGACTTCATTAG (sugars k3 d10 k3, PS) returned a target mRNA inhibition (1 µM) of 52%. On the same count and under the same terms, the value for CTGGAAGGAGGATTCA (sugars k3 d10 k3, PS) was 39%; that for CATCGATGGAAGAAGT (sugars k3 d10 k3, PS) was 16%. On the same count and under the same terms, the value for TGGCTACAGATTGGAA (sugars k3 d10 k3, PS) was 55%; that for CACCTGATTTAGAGAG (sugars k3 d10 k3, PS) was 11%; that for TTCAGAGTTATACAGA (sugars k3 d10 k3, PS) was 66%. For CAGTAGGCAGTTTCTC (sugars k3 d10 k3, PS), the target mRNA inhibition is, setting by setting: (0.02 µM) 0%; (0.078 µM) 0%; (0.313 µM) 30%; (1 µM) 72% and 50%; (1.25 µM) 55%; (5 µM) 86%. The sequence TTTGCAGCATTGATTC (sugars k3 d10 k3, PS) gave a target mRNA inhibition (1 µM) of 53%. Same read-out and setting: for TGGTGAACCCAGTATT (sugars k3 d10 k3, PS) the value was 0%. Same read-out and setting: for “CGTTTTGGGCTAATGA (sugars k3 d9 k3 e1, PS)” the value was 52%.

Regarding TGCCAACACTAATCTC (sugars k3 d10 k3, PS), for the setting “1 µM”, the target mRNA inhibition was found to be 30%. The same measure, in the same setting: for AATATAGAGGGTCCAC (sugars k3 d10 k3, PS) the value was 7%; for CAATGGTTGATAGTTT (sugars k3 d10 k3, PS), 47%. On the same count and under the same terms, the value for GATACCCAGGTTGCTT (sugars k3 d10 k3, PS) was 53%. Regarding TGTAAAGTTTGTTAGA (sugars k3 d10 k3, PS), the target mRNA inhibition (1 µM) is 35%. Same read-out and setting: for “GTGCATCTTAAGATAC (sugars k3 d1 m1 d8 k3, PS)” the value was 40%. The same measure, in the same setting: for “TAGCTTTTGTCCACCT (sugars k3 d9 k3 e1, PS)” the value was 65%; for TCCATAATAATAGCTC (sugars k3 d10 k3, PS), 69%. Still for that read-out and setting: for TCCAATACAGGCCATA (sugars k3 d10 k3, PS) the value was 62%. For the sequence CAGTTATTAGAAGTCA (sugars k3 d10 k3, PS), the target mRNA inhibition is, setting by setting: (0.02 µM) 0%; (0.078 µM) 0%; (0.313 µM) 0%; (1 µM) 85%; (1.25 µM) 56%; (5 µM) 88%. In the case of TTATAACTACAAGAGG (sugars k3 d10 k3, PS), the target mRNA inhibition (0.02 µM) was 1%; the target mRNA inhibition (0.078 µM) stood at 25%; the target mRNA inhibition (0.313 µM) came to 26%; the target mRNA inhibition (1 µM) was 68%; the target mRNA inhibition (1.25 µM) was 60%; the target mRNA inhibition (5 µM) was 82%. Where the note is “1 µM”, ATCCAGATCTGCCCTA (sugars k3 d10 k3, PS) displayed a target mRNA inhibition of 39%.

AACTTTTAGTCAGGTA (sugars k3 d10 k3, PS) returned a target mRNA inhibition (1 µM) of 49%. The same measure, in the same setting: for “TAAACATCTCTGGGAC (sugars k3 d1 m1 d8 k3, PS)” the value was 49%. Same read-out and setting: the value for CCAAATCAGGTAGTTT (sugars k3 d10 k3, PS) was 13%. Same read-out and setting: the value for CAAAGATCTGGCCAGT (sugars k3 d10 k3, PS) was 1%; that for CCCAACCCAAGCTACC (sugars k3 d10 k3, PS) was 22%.

Under “1 µM”, TATAGTTATCTTCTCA (sugars k3 d10 k3, PS) yielded a target mRNA inhibition of 46%. The same measure, in the same setting: for TGTTAAGCAGATGGCT (sugars k3 d10 k3, PS) the value was 39%; for CTGCTACTCTAGGAGA (sugars k3 d10 k3, PS), 66%. Same read-out and setting: for “AGTTATTAGAAGTCAG (sugars k3 d1 m1 d8 k3, PS)” the value was 25%. Under “1 µM”, TTGTTAGAGTGCTTAG (sugars k3 d10 k3, PS) returned a target mRNA inhibition of 76%.

With TTATTGGTATGGTAAG (sugars k3 d10 k3, PS), the target mRNA inhibition (1 µM) is 14%. Under “1 µM”, AACAATATGGGATGAG (sugars k3 d10 k3, PS) showed a target mRNA inhibition of 39%. On the same count and under the same terms, the value for GAAAAGCCTGACTCAC (sugars k3 d10 k3, PS) was 48%; that for TCATAGTTTATATGGA (sugars k3 d10 k3, PS) was 44%. On to ATGGTGATCAGAAGCA (sugars k3 d10 k3, PS), for which the target mRNA inhibition runs as follows: (0.02 µM) 0%; (0.078 µM) 28%; (0.313 µM) 46%; (1 µM) 85%; (1.25 µM) 80%; (5 µM) 81%. In turn, GCATGGCTACAGATTG (sugars k3 d10 k3, PS) had a target mRNA inhibition (1 µM) of 56%. Same read-out and setting: for TCCAGAATAGAGTTGC (sugars k3 d10 k3, PS) the value was 46%; for GATTGAATTCACTATC (sugars k3 d10 k3, PS), 0%; for GCAGAATATATACTAG (sugars k3 d10 k3, PS), 55%. The same measure, in the same setting: the value for AGTTAATAGGACTAAA (sugars k3 d10 k3, PS) was 13%; that for GCTGAAACTGCTGATT (sugars k3 d10 k3, PS) was 38%. The same measure, in the same setting: the value for AGAGAGTAATCAGTTT (sugars k3 d10 k3, PS) was 39%.

As to TCCTGTGTTAGCTTTA (sugars k3 d10 k3, PS), for the setting “1 µM”, the target mRNA inhibition was 56%. Same read-out and setting: the value for TAACTGAGTTATTCTC (sugars k3 d10 k3, PS) was 41%. Sequence CAATTGCTCTATAGAT (sugars k3 d10 k3, PS) gave a target mRNA inhibition (1 µM) of 15%.

As for “CTCTGGGACCAAGGAT (sugars k3 d9 k3 e1, PS)”, under “1 µM”, the target mRNA inhibition was 62%. The same measure, in the same setting: for CATCAAGACATTCTAG (sugars k3 d10 k3, PS) the value was 49%; for GAGTTAGGGAGCCAGC (sugars k3 d10 k3, PS), 39%; for CCATAATAATAGCTCT (sugars k3 d10 k3, PS), 48%. On the same count and under the same terms, for CATATGTGAAGAGCTG (sugars k3 d10 k3, PS) the value was 25%. Still for that read-out and setting: for “AGTAGTGTAAGCTGAG (sugars kkdddddddddkekek, PS)” the value was 52%. In turn, CCTCCTTATTTGTTAG (sugars k3 d10 k3, PS) came in with a target mRNA inhibition (1 µM) of 41%. Still for that read-out and setting: the value for TTTGGTGGACTTCAGA (sugars k3 d10 k3, PS) was 16%.

Take TTATGTAATAGCCAGT (sugars k3 d10 k3, PS): the target mRNA inhibition is, setting by setting: (0.02 µM) 16%; (0.078 µM) 21%; (0.313 µM) 59%; (1 µM) 77%; (1.25 µM) 78%; (5 µM) 89%. Consider GATTTAAAATAGAGTC (sugars k3 d10 k3, PS), for which the target mRNA inhibition (1 µM) came out at 46%.
